Like-named read-outs stand apart in the source and are kept apart here.
Key:
[1] = test system: Key Grass and Sedge Weeds as well as Grass Crops; assay: Post-emergent Test II herbicidal activity (Table 6); type: in vivo; conditions: post-emergence, 336 h; for pest or weed control at 70 g/ha: 70 g ai/ha; for pest or weed control at 140 g/ha: 140 g ai/ha
How it was run: (§1)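 Greenhouse-grown plants at first or second true leaf stage were sprayed post-emergence with compound in acetone/DMSO-based aqueous spray containing crop oil concentrate and surfactant, at 187 L/ha, highest rate plus ½× to 1/16× dilutions. After 14 d, injury was scored visually versus untreated plants, 0 (none) to 100% (complete kill).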

[2] = test system: Key Broadleaf Weed and Crop Species; assay: Post-emergent Test II herbicidal activity (Table 5); type: in vivo; conditions: post-emergence, 336 h, 14 days after application; for pest or weed control at 70 g/ha: application rate 70 g ai/ha; for pest or weed control at 140 g/ha: application rate 140 g ai/ha
How it was run: as §1

[3] = CYPES: yellow nutsedge (Cyperus esculentus), read-out: Visual Growth Reduction (%) 14 Days After Application, CYPES
[4] = DIGSA: crabgrass (Digitaria sanguinalis), read-out: Visual Growth Reduction (%) 14 Days After Application, DIGSA
[5] = ECHCG: barnyardgrass (Echinochloa crus-galli), read-out: Visual Growth Reduction (%) 14 Days After Application, ECHCG
[6] = ORYSA: rice (Oryza sativa), crop, read-out: Visual Growth Reduction (%) 14 Days After Application, ORYSA
[7] = SETFA: giant foxtail (Setaria faberi), read-out: Visual Growth Reduction (%) 14 Days After Application, SETFA
[8] = SORVU: grain sorghum (Sorghum vulgare), read-out: Visual Growth Reduction (%) 14 Days After Application, SORVU
[9] = TRZSS (wheat, Triticum aestivum), crop, read-out: Visual Growth Reduction (%) 14 Days After Application, TRZSS
[10] = ZEAMX: maize, corn (Zea mays), crop, read-out: Visual Growth Reduction (%) 14 Days After Application, ZEAMX
[11] = ABUTH: velvetleaf (Abutilon theophrasti), read-out: Visual Growth Reduction (%) 14 Days After Application, ABUTH
[12] = AMARE: redroot pigweed (Amaranthus retroflexus), read-out: Visual Growth Reduction (%) 14 Days After Application, AMARE
[13] = BRSNN: oilseed-rape, canola (Brassica napus), read-out: Visual Growth Reduction (%) 14 Days After Application, BRSNN
[14] = CHEAL: lambsquarters (Chenopodium album), read-out: Visual Growth Reduction (%) 14 Days After Application, CHEAL
[15] = EPHHL: wild poinsettia (Euphorbia heterophylla), read-out: Visual Growth Reduction (%) 14 Days After Application, EPHHL
[16] = HELAN: sunflower (Helianthus annuus), read-out: Visual Growth Reduction (%) 14 Days After Application, HELAN
[17] = VIOTR: wild pansy (Viola tricolor), read-out: Visual Growth Reduction (%) 14 Days After Application, VIOTR

Structure (SMILES)	pest or weed control at 70 g/ha [1, 3]	pest or weed control at 140 g/ha [1, 3]	pest or weed control at 70 g/ha [1, 4]	pest or weed control at 140 g/ha [1, 4]	pest or weed control at 70 g/ha [1, 5]	pest or weed control at 140 g/ha [1, 5]	pest or weed control at 70 g/ha [1, 6]	pest or weed control at 140 g/ha [1, 6]	pest or weed control at 70 g/ha [1, 7]	pest or weed control at 140 g/ha [1, 7]	pest or weed control at 70 g/ha [1, 8]	pest or weed control at 140 g/ha [1, 8]	pest or weed control at 70 g/ha [1, 9]	pest or weed control at 140 g/ha [1, 9]	pest or weed control at 70 g/ha [1, 10]	pest or weed control at 140 g/ha [1, 10]	melting point	pest or weed control at 70 g/ha [2, 11]	pest or weed control at 140 g/ha [2, 11]	pest or weed control at 70 g/ha [2, 12]	other results
COc1c(N)nc(-c2ccc(C(F)(F)F)c(F)c2F)nc1C(=O)O [Compound 76]	0 to 29%	30 to 44%	75 to 84%	85 to 94%	85 to 94%	95 to 100%	0 to 29%	30 to 44%	45 to 59%	60 to 74%	45 to 59%	45 to 59%	45 to 59%	45 to 59%	0 to 29%	95 to 100%	169 to 170 °C	95 to 100%	95 to 100%	95 to 100%	pest or weed control at 140 g/ha [2, 12]: 95 to 100%; pest or weed control at 70 g/ha [2, 13]: 85 to 94%; pest or weed control at 140 g/ha [2, 13]: 95 to 100%; pest or weed control at 70 g/ha [2, 14]: 85 to 94%; pest or weed control at 140 g/ha [2, 14]: 95 to 100%; pest or weed control at 70 g/ha [2, 15]: 95 to 100%; pest or weed control at 70 g/ha [2, 16]: 85 to 94%; pest or weed control at 140 g/ha [2, 16]: 95 to 100%; pest or weed control at 70 g/ha [2, 17]: 45 to 59%; pest or weed control at 140 g/ha [2, 17]: 60 to 74%
COC(=O)c1nc(-c2ccc(OC(F)F)cc2)nc(N)c1OC [Compound 106, methyl 6-amino-2-(4-(difluoromethoxy)phenyl)-5-methoxypyrimidine-4-carboxylate]	0 to 29%	0 to 29%	0 to 29%	0 to 29%	0 to 29%	0 to 29%	0 to 29%	0 to 29%	0 to 29%	0 to 29%	0 to 29%	0 to 29%	0 to 29%	0 to 29%	0 to 29%	0 to 29%	183 to 184 °C	0 to 29%	0 to 29%	0 to 29%	pest or weed control at 140 g/ha [2, 12]: 0 to 29%; pest or weed control at 70 g/ha [2, 13]: 0 to 29%; pest or weed control at 140 g/ha [2, 13]: 0 to 29%; pest or weed control at 70 g/ha [2, 14]: 0 to 29%; pest or weed control at 140 g/ha [2, 14]: 0 to 29%; pest or weed control at 70 g/ha [2, 15]: 0 to 29%; pest or weed control at 140 g/ha [2, 15]: 0 to 29%; pest or weed control at 70 g/ha [2, 16]: 0 to 29%; pest or weed control at 140 g/ha [2, 16]: 0 to 29%; pest or weed control at 70 g/ha [2, 17]: 0 to 29%; pest or weed control at 140 g/ha [2, 17]: 0 to 29%
Nc1c(F)c(-c2ccc(C(F)(F)F)c(F)c2F)nc(C(=O)O)c1Cl [Compound 167]	85 to 94%	95 to 100%	75 to 84%	75 to 84%	95 to 100%	95 to 100%	0 to 29%	0 to 29%	85 to 94%	95 to 100%	85 to 94%	85 to 94%	60 to 74%	60 to 74%	75 to 84%	85 to 94%	69 to 70 °C	85 to 94%	95 to 100%	95 to 100%	pest or weed control at 140 g/ha [2, 12]: 95 to 100%; pest or weed control at 70 g/ha [2, 13]: 95 to 100%; pest or weed control at 140 g/ha [2, 13]: 95 to 100%; pest or weed control at 70 g/ha [2, 14]: 95 to 100%; pest or weed control at 140 g/ha [2, 14]: 95 to 100%; pest or weed control at 70 g/ha [2, 15]: 95 to 100%; pest or weed control at 140 g/ha [2, 15]: 95 to 100%; pest or weed control at 70 g/ha [2, 16]: 95 to 100%; pest or weed control at 140 g/ha [2, 16]: 95 to 100%; pest or weed control at 70 g/ha [2, 17]: 95 to 100%; pest or weed control at 140 g/ha [2, 17]: 85 to 94%
Nc1cc(-c2ccc(C(F)(F)F)c(F)c2F)nc(C(=O)O)c1Cl [Compound 172, 4-amino-3-chloro-6-(2,3-difluoro-4-(trifluoromethyl)phenyl)picolinic acid]	95 to 100%	95 to 100%	75 to 84%	75 to 84%	95 to 100%	95 to 100%	0 to 29%	0 to 29%	95 to 100%	95 to 100%	75 to 84%	75 to 84%	45 to 59%	60 to 74%	95 to 100%	95 to 100%	161 °C	95 to 100%	95 to 100%	95 to 100%	pest or weed control at 140 g/ha [2, 12]: 95 to 100%; pest or weed control at 70 g/ha [2, 13]: 75 to 84%; pest or weed control at 140 g/ha [2, 13]: 75 to 84%; pest or weed control at 70 g/ha [2, 14]: 85 to 94%; pest or weed control at 140 g/ha [2, 14]: 85 to 94%; pest or weed control at 70 g/ha [2, 15]: 95 to 100%; pest or weed control at 140 g/ha [2, 15]: 95 to 100%; pest or weed control at 70 g/ha [2, 16]: 95 to 100%; pest or weed control at 140 g/ha [2, 16]: 95 to 100%; pest or weed control at 70 g/ha [2, 17]: 45 to 59%; pest or weed control at 140 g/ha [2, 17]: 60 to 74%
